# Measurements: patent US20180099931A1 (AbbVie S.à.r.l., priority 2016, published 2018)
# Where two headings read alike, the source gives them in different places.
# Molecular target: T1, F508delCFTR (Homo sapiens, UniProt P13569, DEL508-508)
# T1 construct: expressed in transfected cells; host or cells: CFBE41o- human lung-derived epithelial cells (CFBE4lo-F508delCFTR-HRP), doxycycline-inducible
# Experiment: Cell Surface Expression-Horse Radish Peroxidase (CSE-HRP) Assay;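 for Maximum % activity (with co-corrector): co-corrector and positive control are both the same reference corrector at 2 µM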;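 for Maximum % activity (without co-corrector): percent of the 2 µM on-plate positive control corrector response above DMSO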
# Assay type: cell-based
# Details: for Maximum % activity (with co-corrector) / Emax: maximum at any tested concentration, normalized to on-plate positive control; for Emax: read-out: Maximum % activity (without co-corrector)
# [1] = test compound without co-corrector, read-out: EC50 (without co-corrector)
# [2] = with co-corrector (2 μM of 3-[(2R,4R)-4-({[1-(2,2-difluoro-1,3-benzodioxol-5-yl)cyclopropyl]carbonyl}amino)-7-methoxy-3,4-dihydro-2H-chromen-2-yl]benzoic acid), read-out: EC50 (with co-corrector)
# [3] = CSE-HRP, test compound without co-corrector, read-out: EC50 (without co-corrector)
# [4] = CSE-HRP, with co-corrector (2 μM of 3-[(2R,4R)-4-({[1-(2,2-difluoro-1,3-benzodioxol-5-yl)cyclopropyl]carbonyl}amino)-7-methoxy-3,4-dihydro-2H-chromen-2-yl]benzoic acid), read-out: EC50 (with co-corrector)
# [5] = CSE-HRP, with co-corrector (2 μM)
# [6] = test compound without co-corrector
# [7] = with co-corrector (2 μM of 3-[(2R,4R)-4-({[1-(2,2-difluoro-1,3-benzodioxol-5-yl)cyclopropyl]carbonyl}amino)-7-methoxy-3,4-dihydro-2H-chromen-2-yl]benzoic acid)
# T1 sequence (P13569 with tags, fused parts or gaps DEL508-508): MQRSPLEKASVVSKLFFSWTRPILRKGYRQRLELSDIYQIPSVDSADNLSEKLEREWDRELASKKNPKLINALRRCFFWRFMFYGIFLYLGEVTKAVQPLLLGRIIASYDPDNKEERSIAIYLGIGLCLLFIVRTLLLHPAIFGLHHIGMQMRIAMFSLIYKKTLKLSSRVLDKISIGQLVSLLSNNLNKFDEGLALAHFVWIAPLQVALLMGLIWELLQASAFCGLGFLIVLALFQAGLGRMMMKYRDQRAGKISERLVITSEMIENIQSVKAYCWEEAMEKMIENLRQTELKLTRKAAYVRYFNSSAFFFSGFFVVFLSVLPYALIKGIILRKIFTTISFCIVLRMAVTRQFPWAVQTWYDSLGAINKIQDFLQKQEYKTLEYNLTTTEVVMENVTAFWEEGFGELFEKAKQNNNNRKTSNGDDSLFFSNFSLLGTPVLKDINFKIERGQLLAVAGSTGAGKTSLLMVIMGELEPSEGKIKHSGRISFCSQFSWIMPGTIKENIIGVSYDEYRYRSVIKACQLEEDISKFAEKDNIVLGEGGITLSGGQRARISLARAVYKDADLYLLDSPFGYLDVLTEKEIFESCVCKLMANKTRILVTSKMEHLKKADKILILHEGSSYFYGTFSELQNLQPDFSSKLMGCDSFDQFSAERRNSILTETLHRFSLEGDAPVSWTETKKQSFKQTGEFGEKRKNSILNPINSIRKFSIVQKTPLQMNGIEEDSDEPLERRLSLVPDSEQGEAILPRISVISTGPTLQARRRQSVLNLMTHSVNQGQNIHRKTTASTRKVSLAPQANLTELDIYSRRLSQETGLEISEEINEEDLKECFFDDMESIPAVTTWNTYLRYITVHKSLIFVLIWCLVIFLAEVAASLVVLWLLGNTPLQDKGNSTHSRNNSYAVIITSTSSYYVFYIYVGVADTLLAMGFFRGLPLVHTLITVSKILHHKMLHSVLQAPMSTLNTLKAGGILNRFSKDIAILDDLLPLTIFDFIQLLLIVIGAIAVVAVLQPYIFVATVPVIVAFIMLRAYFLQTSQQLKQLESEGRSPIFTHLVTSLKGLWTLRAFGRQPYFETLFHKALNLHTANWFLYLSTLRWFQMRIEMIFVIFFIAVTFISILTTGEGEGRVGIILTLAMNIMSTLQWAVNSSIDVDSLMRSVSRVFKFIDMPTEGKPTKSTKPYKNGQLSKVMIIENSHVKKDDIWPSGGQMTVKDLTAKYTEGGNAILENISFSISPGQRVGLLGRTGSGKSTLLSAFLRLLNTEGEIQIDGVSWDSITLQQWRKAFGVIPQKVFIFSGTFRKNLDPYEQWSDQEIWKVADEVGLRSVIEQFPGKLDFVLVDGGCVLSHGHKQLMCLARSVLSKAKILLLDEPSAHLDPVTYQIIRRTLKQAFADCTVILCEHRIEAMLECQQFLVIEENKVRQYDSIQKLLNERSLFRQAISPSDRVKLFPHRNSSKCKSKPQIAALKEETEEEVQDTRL
Structure (SMILES),EC50 [1] [µM],EC50 [2] [µM],Maximum % activity (with co-corrector) (with co-corrector (2 μM)),Emax (without co-corrector) [%],EC50 [3] [µM],EC50 [4] [µM],Maximum % activity (with co-corrector) [5],"Emax (CSE-HRP, without co-corrector) [%]",Emax [6] [%],Maximum % activity (with co-corrector) [7]
COc1ccc(C(C)(C)C)cc1CN[C@H]1[C@H](C(C)(C)C)[C@@H](C(=O)O)N(C(=O)[C@H](C)[C@H]2CCCCO2)[C@H]1c1ccccc1 (relative stereo) [Example I-196],1 to 10,1 to 10,+++ (≥350),> 200,–,–,–,–,–,–
"COc1ncc(C2CCC2)cc1CN[C@H]1[C@H](C(C)(C)C)[C@@H](C(=O)O)N(C(=O)[C@@H]2CCCC(F)(F)C2)[C@H]1c1ccccc1 [Example 69, (2S,3S,4S,5S)-3-tert-butyl-4-{[(5-cyclobutyl-2-methoxypyridin-3-yl)methyl]amino}-1-[(1R)-3,3-difluorocyclohexane-1-carbonyl]-5-phenylpyrrolidine-2-carboxylic acid]",< 1,< 1,+++ (≥350),> 200,–,–,–,–,–,–
"Cc1cc(C(F)(F)F)cc(N[C@H]2[C@H](C(C)(C)C)[C@@H](C(=O)O)N(C(=O)OC(C)C)[C@H]2c2ccccc2C(C)C)n1 [Example 82, (2S,3S,4S,5S)-3-tert-butyl-4-{[6-methyl-4-(trifluoromethyl)pyridin-2-yl]amino}-1-{[(propan-2-yl)oxy]carbonyl}-5-[2-(propan-2-yl)phenyl]pyrrolidine-2-carboxylic acid]",1 to 10,1 to 10,++ (≥150 and <350),< 100,–,–,–,–,–,–
COc1nc(C(C)(C)C)ncc1CN[C@H]1[C@H](C(C)(C)C)[C@@H](C(=O)O)N(C(=O)C2CCCCC2)[C@H]1c1ccccc1 [Example I-207],1 to 10,1 to 10,+++ (≥350),100 to 200,–,–,–,–,–,–
COc1ncc(C(F)(F)F)cc1CN[C@H]1[C@H](C(C)(C)C)[C@@H](C(=O)O)N(C(=O)C2CCCCC2)[C@H]1c1cccnc1N(C)C [Example I-120],1 to 10,1 to 10,+++ (≥350),100 to 200,–,–,–,–,–,–
COc1cc(OC)nc(N[C@@H]2[C@@H](C(C)(C)C)[C@H](C(=O)O)N(C(=O)C3CCCCC3)[C@@H]2c2ccccc2)n1 (racemic) [Example I-1],1 to 10,1 to 10,+++ (≥350),< 100,–,–,–,–,–,–
COc1ncc(C2CCC2)cc1CN[C@H]1[C@H](C(C)(C)C)[C@@H](C(=O)O)N(C(=O)[C@@H]2CCCO2)[C@H]1c1ccccc1C [Example I-265],–,–,–,–,1 to 10,1 to 10,+++ (≥350),> 200,–,–
"COc1ccc(C(C)(C)C)cc1CN[C@H]1[C@H](C(C)(C)C)[C@@H](C(=O)O)N(C(=O)[C@@H]2CCCC(F)(F)C2)[C@H]1c1ccccc1 [Example 31, (2S,3S,4S,5S)-3-tert-butyl-4-{[(5-tert-butyl-2-methoxyphenyl)methyl]amino}-1-[(1R)-3,3-difluorocyclohexane-1-carbonyl]-5-phenylpyrrolidine-2-carboxylic acid]",< 1,< 1,+++ (≥350),> 200,–,–,–,–,–,–
COc1ncc(C(F)(F)F)cc1CN[C@H]1[C@H](C(C)(C)C)[C@@H](C(=O)O)N(C(=O)[C@@H]2CCCCO2)[C@H]1c1cccc2c1OCC2 [Example I-298],–,–,–,–,1 to 10,1 to 10,+++ (≥350),100 to 200,–,–
COc1ncc(C(F)(F)F)cc1CN[C@H]1[C@H](C(C)(C)C)[C@@H](C(=O)O)N(C(=O)C2CCCC(F)(F)C2)[C@H]1c1ccccc1 (stereo partly shown) [Example I-183],1 to 10,< 1,+++ (≥350),100 to 200,–,–,–,–,–,–
COc1cc(C(F)(F)F)ccc1CN[C@H]1[C@H](C(C)(C)C)[C@@H](C(=O)O)N(C(=O)C2CCCCC2)[C@H]1c1ccccc1OC(F)F [Example I-43],1 to 10,1 to 10,+++ (≥350),< 100,–,–,–,–,–,–

# Now from value to molecule:
EC50 [1] [µM],EC50 [2] [µM],Maximum % activity (with co-corrector) (with co-corrector (2 μM)),Emax (without co-corrector) [%],EC50 [3] [µM],EC50 [4] [µM],Maximum % activity (with co-corrector) [5],"Emax (CSE-HRP, without co-corrector) [%]",Emax [6] [%],Maximum % activity (with co-corrector) [7],Structure (SMILES)
–,–,–,–,1 to 10,1 to 10,++ (≥150 and <350),< 100,–,–,COc1ccc(-c2cnn(C3CCC3)c2)cc1CN[C@H]1[C@H](C(C)(C)C)[C@@H](C(=O)O)N(C(=O)C2CCCCC2)[C@H]1c1ccccc1 [II-290]
1 to 10,1 to 10,–,–,–,–,–,–,100 to 200,+++ (≥350),COc1nc(C2CCC2)ccc1CN[C@H]1[C@H](C(C)(C)C)[C@@H](C(=O)O)N(C(=O)OC(C)C)[C@H]1c1cccnc1N(C)C [II-548]
1 to 10,< 1,–,–,–,–,–,–,100 to 200,+++ (≥350),COc1ccc(C(C)(C)C)cc1CN[C@H]1[C@H](C(C)(C)C)[C@@H](C(=O)O)N(C(=O)C(C)Oc2cccc(C)c2C)[C@H]1c1ccccc1 (stereo partly shown) [II-323]
< 1,< 1,+++ (≥350),–,–,–,–,–,> 200,–,COc1ccc(C23CC4CC(CC(C4)C2)C3)cc1CN[C@H]1[C@H](C(C)(C)C)[C@@H](C(=O)O)N(C(=O)C2CCCCC2)[C@H]1c1cccnc1N(C)C [III-183]
> 10,> 10,+ (<150),–,–,–,–,–,< 100,–,"COc1ccc(C(C)(C)C)cc1CN[C@H]1[C@H](C(C)(C)C)[C@@H](C(=O)O)N(C(=O)C2CCCCC2)[C@H]1c1cccn(C)c1=O (racemic) [Example III-228, rac-(2S,3S,4S,5S)-3-tert-butyl-4-{[(5-tert-butyl-2-methoxyphenyl)methyl]amino}-1-(cyclohexanecarbonyl)-5-(1-methyl-2-oxo-1,2-dihydropyridin-3-yl)pyrrolidine-2-carboxylic acid]"
> 10,> 10,–,–,–,–,–,–,< 100,+ (<150),CC(C)(C)[C@@H]1[C@@H](NCc2cc(S(C)(=O)=O)ccc2O)[C@@H](c2ccccc2)N(C(=O)C2CCCCC2)[C@H]1C(=O)O (racemic) [III-79]
–,–,–,–,1 to 10,1 to 10,+++ (≥350),100 to 200,–,–,COc1cc2c(cc1CN[C@H]1[C@H](C(C)(C)C)[C@@H](C(=O)O)N(C(=O)C3CCCCC3)[C@H]1c1ccccc1)OCO2 [II-116]
1 to 10,1 to 10,–,–,–,–,–,–,< 100,+++ (≥350),COc1cccc([C@H]2[C@@H](NCc3cc(C(F)(F)F)ccc3OC)[C@H](C(C)(C)C)[C@@H](C(=O)O)N2C(=O)C2CCCOC2)n1 (mixture of isomers) [III-69]
1 to 10,1 to 10,–,–,–,–,–,–,> 200,+++ (≥350),COc1ccc(OC(F)(F)F)cc1CN[C@H]1[C@H](C(C)(C)C)[C@@H](C(=O)O)N(C(=O)OC(C)C)[C@H]1c1cccnc1N(C)C [II-552]
> 10,1 to 10,++ (≥150 and <350),–,–,–,–,–,< 100,–,CC(C)(C)[C@H]1[C@H](NCc2ccc(F)c(C#N)c2)[C@H](c2ccccc2)N(C(=O)C2CCCCC2)[C@@H]1C(=O)O [III-125]
–,–,–,–,1 to 10,1 to 10,+++ (≥350),> 200,–,–,COc1ccc(C(C)(C)C)cc1CN[C@H]1[C@H](C(C)(C)C)[C@@H](C(=O)O)N(C(=O)CC2C=CCCC2)[C@H]1c1ccccc1 (stereo partly shown) [II-212]
–,–,–,–,1 to 10,1 to 10,++ (≥150 and <350),< 100,–,–,COC(=O)[C@H](C)Cc1cnc(OC)c(CN[C@H]2[C@H](C(C)(C)C)[C@@H](C(=O)O)N(C(=O)C3CCCCC3)[C@H]2c2ccccc2)c1 [II-159]
–,–,–,–,1 to 10,1 to 10,+++ (≥350),100 to 200,–,–,COc1ccc(C(C)(C)C)cc1CN[C@H]1[C@H](C(C)(C)C)[C@@H](C(=O)O)N(C(=O)CC2CCOCC2)[C@H]1c1ccccc1 [II-162]
–,–,–,–,1 to 10,1 to 10,+++ (≥350),100 to 200,–,–,COc1ccc(C(C)(C)C)cc1CN[C@H]1[C@H](C(C)(C)C)[C@@H](C(=O)O)N(C(=O)CC2CCC(F)(F)C2)[C@H]1c1ccccc1 (stereo partly shown) [II-218]
–,–,–,–,1 to 10,< 1,+++ (≥350),100 to 200,–,–,COc1ccc(C(C)(C)C)cc1CN[C@H]1[C@H](C(C)(C)C)[C@@H](C(=O)O)N(C(=O)Cc2cccc(C)c2)[C@H]1c1ccccc1 [II-203]
1 to 10,1 to 10,–,–,–,–,–,–,< 100,+++ (≥350),COc1cnc(C2CCCCC2)cc1CN[C@H]1[C@H](C(C)(C)C)[C@@H](C(=O)O)N(C(=O)C2CCCCC2)[C@H]1c1ccccc1 [II-404]
–,–,–,–,1 to 10,1 to 10,+++ (≥350),100 to 200,–,–,COc1ccc(C(F)(F)F)cc1CN[C@@H]1[C@@H](C(C)(C)C)[C@H](C(=O)O)N(C(=O)OC(C)C)[C@@H]1c1ccccc1N(C)C (racemic) [II-56]
